Measurements: ChEMBL document CHEMBL1687752, “Impact of antifungal prophylaxis on colonization and azole susceptibility of Candida species” (2009)
In brackets after ≈: the same amount, converted by molar mass.

Experiments:
Assay type in all cases: functional
[1] = test system: Nakaseomyces glabratus; assay: Antifungal activity against 42 days cultured Candida glabrata isolated from neutropenic subject with AML or MDS stool after 48 days of prophylaxis by broth microdilution method
[2] = test system: Nakaseomyces glabratus; assay: Antifungal activity against 19 days cultured Candida glabrata isolated from HSCT recipient with acute or chronic GVHD mouth after 17 days of prophylaxis by broth microdilution method
[3] = test system: Pichia kudriavzevii; assay: Antifungal activity against 8 days cultured Candida krusei isolated from neutropenic subject with AML or MDS pharynx after 12 days of prophylaxis by broth microdilution method
[4] = test system: Pichia kudriavzevii; assay: Antifungal activity against 13 days cultured Candida krusei isolated from invasive fungal infected subject blood after 12 days of prophylaxis by broth microdilution method
[5] = test system: Nakaseomyces glabratus; assay: Antifungal activity against 35 days cultured Candida glabrata isolated from HSCT recipient with acute or chronic GVHD mouth receiving antifungal therapy for 165 days after 138 days of prophylaxis by broth microdilution method
[6] = test system: Nakaseomyces glabratus; assay: Antifungal activity against 25 days cultured Candida glabrata isolated from invasive fungal infected subject blood receiving antifungal therapy for 25 days after 3 days of prophylaxis by broth microdilution method
[7] = test system: Nakaseomyces glabratus; assay: Antifungal activity against 7 days cultured Candida glabrata isolated from neutropenic subject with AML or MDS stool receiving antifungal therapy for 37 days after 9 days of prophylaxis by broth microdilution method
[8] = test system: Candida tropicalis; assay: Antifungal activity against -3 days cultured Candida tropicalis isolated from neutropenic subject with AML or MDS pharynx receiving antifungal therapy for 45 days after 24 days of prophylaxis by broth microdilution method
[9] = test system: Candida tropicalis; assay: Antifungal activity against 2 days cultured Candida tropicalis isolated from neutropenic subject with AML or MDS stool receiving antifungal therapy for 45 days after 24 days of prophylaxis by broth microdilution method
[10] = test system: Nakaseomyces glabratus; assay: Antifungal activity against 16 days cultured Candida glabrata isolated from HSCT recipient with acute or chronic GVHD mouth receiving antifungal therapy for 31 days after 28 days of prophylaxis by broth microdilution method
[11] = test system: Nakaseomyces glabratus; assay: Antifungal activity against 31 days cultured Candida glabrata isolated from HSCT recipient with acute or chronic GVHD mouth receiving antifungal therapy for 31 days after 28 days of prophylaxis by broth microdilution method
[12] = test system: Nakaseomyces glabratus; assay: Antifungal activity against 62 days cultured Candida glabrata isolated from HSCT recipient with acute or chronic GVHD mouth receiving antifungal therapy for 143 days after 116 days of prophylaxis by broth microdilution method
[13] = test system: Nakaseomyces glabratus; assay: Antifungal activity against 43 days cultured Candida glabrata isolated from HSCT recipient with acute or chronic GVHD mouth receiving antifungal therapy for 168 days after 113 days of prophylaxis by broth microdilution method
[14] = test system: Nakaseomyces glabratus; assay: Antifungal activity against -2 days cultured Candida glabrata isolated from HSCT recipient with acute or chronic GVHD mouth receiving antifungal therapy for 172 days after 114 days of prophylaxis by broth microdilution method
[15] = test system: Pichia kudriavzevii; assay: Antifungal activity against 1 day cultured Candida krusei isolated from neutropenic subject with AML or MDS pharynx receiving antifungal therapy for 19 days after 6 days of prophylaxis by broth microdilution method
[16] = test system: Pichia kudriavzevii; assay: Antifungal activity against 6 days cultured Candida krusei isolated from neutropenic subject with AML or MDS stool receiving antifungal therapy for 19 days after 6 days of prophylaxis by broth microdilution method
[17] = test system: Candida albicans; assay: Antifungal activity against Candida albicans isolated from HSCT recipients with acute or chronic GVHD prior to initiation of posaconazole therapy assessed as maximum MIC by broth microdilution method
[18] = test system: Candida albicans; assay: Antifungal activity against Candida albicans isolated from HSCT recipients with acute or chronic GVHD receiving posaconazole assessed as maximum MIC by broth microdilution method
[19] = test system: Candida albicans; assay: Antifungal activity against Candida albicans isolated from neutropenic subjects with AML or MDS prior to initiation of posaconazole therapy by broth microdilution method
[20] = test system: Candida albicans; assay: Antifungal activity against Candida albicans isolated from neutropenic subjects with AML or MDS receiving posaconazole by broth microdilution method
[21] = test system: Candida albicans; assay: Antifungal activity against Candida albicans isolated from HSCT recipients with acute or chronic GVHD prior to initiation of fluconazole therapy by broth microdilution method
[22] = test system: Nakaseomyces glabratus; assay: Antifungal activity against Candida glabrata isolated from HSCT recipients with acute or chronic GVHD receiving fluconazole by broth microdilution method
[23] = test system: Nakaseomyces glabratus; assay: Antifungal activity against Candida glabrata isolated from HSCT recipients with acute or chronic GVHD prior to initiation of fluconazole therapy assessed as maximum MIC by broth microdilution method
[24] = test system: Nakaseomyces glabratus; assay: Antifungal activity against Candida glabrata isolated from HSCT recipients with acute or chronic GVHD receiving fluconazole assessed as maximum MIC by broth microdilution method
[25] = test system: Candida albicans; assay: Antifungal activity against Candida albicans isolated from neutropenic subjects with AML or MDS prior to initiation of fluconazole therapy by broth microdilution method
[26] = test system: Candida albicans; assay: Antifungal activity against Candida albicans isolated from neutropenic subjects with AML or MDS prior to initiation of fluconazole therapy assessed as maximum MIC by broth microdilution method
[27] = test system: Pichia kudriavzevii; assay: Antifungal activity against Candida krusei isolated from neutropenic subjects with AML or MDS prior to initiation of fluconazole therapy assessed as maximum MIC by broth microdilution method
[28] = test system: Candida albicans; assay: Antifungal activity against Candida albicans isolated from HSCT recipient 262 with acute or chronic GVHD mouth receiving antifungal drug after 115 days prophylaxis by broth microdilution method
[29] = test system: Nakaseomyces glabratus; assay: Antifungal activity against Candida glabrata isolated from neutropenic subject 1102 with AML or MDS stool receiving antifungal drug after 26 days prophylaxis by broth microdilution method; details: 624 h
[30] = test system: Nakaseomyces glabratus; assay: Antifungal activity against Candida glabrata isolated from neutropenic subject 1497 with AML or MDS pharynx receiving antifungal drug after 61 days prophylaxis by broth microdilution method
[31] = test system: Nakaseomyces glabratus; assay: Antifungal activity against Candida glabrata isolated from HSCT recipient 186 with acute or chronic GVHD mouth after 112 days prophylaxis by broth microdilution method
[32] = test system: Nakaseomyces glabratus; assay: Antifungal activity against Candida glabrata isolated from HSCT recipient 186 with acute or chronic GVHD mouth receiving antifungal drug after 112 days prophylaxis by broth microdilution method
[33] = test system: Nakaseomyces glabratus; assay: Antifungal activity against Candida glabrata isolated from HSCT recipient 975 with acute or chronic GVHD mouth receiving antifungal drug after 112 days prophylaxis by broth microdilution method
[34] = test system: Saccharomyces cerevisiae; assay: Antifungal activity against Saccharomyces cerevisiae isolated from HSCT recipient 513 with acute or chronic GVHD mouth after 112 days prophylaxis by broth microdilution method
[35] = test system: Candida albicans; assay: Antifungal activity against Candida albicans isolated from HSCT recipient 031 with acute or chronic GVHD mouth after 109 days prophylaxis by broth microdilution method
[36] = test system: Nakaseomyces glabratus; assay: Antifungal activity against Candida glabrata isolated from HSCT recipient 002 with acute or chronic GVHD mouth receiving antifungal drug after 116 days prophylaxis by broth microdilution method
[37] = test system: Nakaseomyces glabratus; assay: Antifungal activity against Candida glabrata isolated from HSCT recipient 497 with acute or chronic GVHD mouth after 114 days prophylaxis by broth microdilution method
[38] = test system: Nakaseomyces glabratus; assay: Antifungal activity against Candida glabrata isolated from HSCT recipient 807 with acute or chronic GVHD mouth after 114 days prophylaxis by broth microdilution method
[39] = test system: Nakaseomyces glabratus; assay: Antifungal activity against Candida glabrata isolated from HSCT recipient 491 with acute or chronic GVHD mouth receiving antifungal drug after 112 days prophylaxis by broth microdilution method

OC(Cn1cncn1)(Cn1cncn1)c1ccc(F)cc1F [FLUCONAZOLE]
MIC [1]: 8 µg/mL (≈ 26.1 µM)
MIC [2]: > 64 µg/mL
MIC [3]: > 64 µg/mL
MIC [4]: > 64 µg/mL
MIC [5]: 64 µg/mL (≈ 209 µM)
MIC [6]: 8 µg/mL (≈ 26.1 µM)
MIC [7]: 8 µg/mL (≈ 26.1 µM)
MIC [8]: 0.5 µg/mL (≈ 1.63 µM)
MIC [9]: 0.25 µg/mL (≈ 0.816 µM)
MIC [10]: < 2 µg/mL
MIC [11]: < 4 µg/mL
MIC [12]: 64 µg/mL (≈ 209 µM)
MIC [13]: 64 µg/mL (≈ 209 µM)
MIC [14]: 16 µg/mL (≈ 52.2 µM)
MIC [15]: 32 µg/mL (≈ 104 µM)
MIC [16]: 64 µg/mL (≈ 209 µM)
MIC [17]: 64 µg/mL
MIC [18]: 64 µg/mL
MIC50 [19]: 0.25 µg/mL (≈ 0.816 µM)
MIC90 [19]: 0.25 µg/mL (≈ 0.816 µM)
MIC50 [20]: 0.25 µg/mL (≈ 0.816 µM)
MIC90 [20]: 0.25 µg/mL (≈ 0.816 µM)
MIC50 [21]: 0.25 µg/mL (≈ 0.816 µM)
MIC90 [21]: 1 µg/mL (≈ 3.27 µM)
MIC50 [22]: 32 µg/mL (≈ 104 µM)
MIC90 [22]: 64 µg/mL (≈ 209 µM)
MIC [23]: 64 µg/mL
MIC [24]: 64 µg/mL
MIC50 [25]: 0.125 µg/mL (≈ 0.408 µM)
MIC90 [25]: 0.25 µg/mL (≈ 0.816 µM)
MIC [26]: 1 µg/mL
MIC [27]: 32 µg/mL
MIC [28]: 2 µg/mL (≈ 6.53 µM)
MIC [29]: > 64 µg/mL
MIC [30]: > 64 µg/mL
MIC [31]: 8 µg/mL (≈ 26.1 µM)
MIC [32]: 32 µg/mL (≈ 104 µM)
MIC [33]: 128 µg/mL (≈ 418 µM)
MIC [34]: 8 µg/mL (≈ 26.1 µM)
MIC [35]: 16 µg/mL (≈ 52.2 µM)
MIC [36]: 64 µg/mL (≈ 209 µM)
MIC [37]: 16 µg/mL (≈ 52.2 µM)
MIC [38]: 16 µg/mL (≈ 52.2 µM)
MIC [39]: 32 µg/mL (≈ 104 µM)
